One experiment deals with VR1/TRPV1 receptor (Homo sapiens, UniProt Q8NER1). Briefly: IC50 (human) after pH stimulus. In kind it is cell-based. The conditions noted are these: for IC50: table 4.
Experiment [1] concerns capsaicin induced hypothermie. Kind of experiment: Hypothermie assay in the mouse (capsaicin induced hypothermie). The format is in vivo. The conditions noted are these: 0.3 mg/kg body weight po; mouse; read-out: inhibition hypothermie (n = 5). On the procedure: V. Hypothermie Assay an der Maus
Male NMRI mice (weight 25-35 gram, supplier IFFA CREDO, Bruxelles, Belgium) are used in the hypothermie assay. The animals are kept under standardized conditions: light/darkness interval (6:00 to 18:00 light; 18:00 to 6:00 Uhr darkness), room temperature 19-22° C., relative humidity 35-70%, 15 times per hour change of compartment air, airflow <0.2 m/sec. The animals were fed on a standardized diet (ssniff diet, ssniff Spezialdiäten GmbH, Soest, Germany) and tap water. Water and diet were detracted during the experiment. All animals were used once in the experiment. The animals were allowed to adapt to the experimental conditions for at least 5 days.
The acute application of capsaicin (VR-1 agonist) leads to a decrease of the core body temperature in rat and mice via stimulation of heat sensors. Only compounds which act as specific VR-1-receptor antagonists can antagonize the capsaicin induced hypothermie. In contrast, morphine induced hypothermie is not antagonized by VR-1 antagonists. Thus, this experiment is suitable for the determination of compounds that act as VR1-antagonists via their effect on the core body temperature.
For the determination of the core body temperature a digital thermometer was used (Thermalert TH-5, physitemp, Clifton N.J., USA). The measuring head was inserted into the rectum.
The individual basis value is determined by measuring the body temperature twice in an interval of about half an hour. […] […] The test compound is given 10 min (i.v.) or 15 min (p.o.), respectively, before application of capsaicin. The body temperature is determined 7.5/15 and 30 min after application of capsaicin (i.v.+i.p.) or 15/30/60/90/120 min after application of capsaicin (p.o.+i.p.), respectively. In addition, another group of mice is only given the test compound or a vehicle control.
The measuring points are given as average values±S.E.M. of the absolute values. The antagonistic effect is given in percent of inhibition of capsaicin induced hypothermie.

The target of experiment [2] is T1, vanilloid receptor 1 (VR1/TRPV1) of the rat species (Rattus norvegicus, UniProt O35433).
T1 construct: The spinal column is removed from decapitated rats; from tissue; host or cells: primary cells dissociated from rat dorsal root ganglia
Kind of experiment: FLIPR Ca2+ influx assay on rat dorsal root ganglia cells (pharmacological method I). The format is cell-based. The conditions noted are these: table 4, capsaicin. The method, boiled down:
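Primary rat dorsal root ganglion cells loaded with 2 μM Fluo-4, Ca2+ influx read on FLIPR as peak fluorescence. Triplicates, at least 3 independent experiments.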

The target in another experiment is T2, vanilloid receptor (VR1) (Homo sapiens, UniProt Q8NER1).
T2 construct: expressed in transfected cells; host or cells: CHO K1 cells (ECACC), stably transfected
Kind of experiment: FLIPR Ca2+ influx assay on CHO K1 cells transfected with the VR1 gene (pharmacological method II). In kind it is cell-based. The conditions noted are these: table 4; capsaicin; read-out: Ki (human) Cap.

Read-outs that look alike come from different tables or passages of the source.

T1 sequence (O35433 whole entry): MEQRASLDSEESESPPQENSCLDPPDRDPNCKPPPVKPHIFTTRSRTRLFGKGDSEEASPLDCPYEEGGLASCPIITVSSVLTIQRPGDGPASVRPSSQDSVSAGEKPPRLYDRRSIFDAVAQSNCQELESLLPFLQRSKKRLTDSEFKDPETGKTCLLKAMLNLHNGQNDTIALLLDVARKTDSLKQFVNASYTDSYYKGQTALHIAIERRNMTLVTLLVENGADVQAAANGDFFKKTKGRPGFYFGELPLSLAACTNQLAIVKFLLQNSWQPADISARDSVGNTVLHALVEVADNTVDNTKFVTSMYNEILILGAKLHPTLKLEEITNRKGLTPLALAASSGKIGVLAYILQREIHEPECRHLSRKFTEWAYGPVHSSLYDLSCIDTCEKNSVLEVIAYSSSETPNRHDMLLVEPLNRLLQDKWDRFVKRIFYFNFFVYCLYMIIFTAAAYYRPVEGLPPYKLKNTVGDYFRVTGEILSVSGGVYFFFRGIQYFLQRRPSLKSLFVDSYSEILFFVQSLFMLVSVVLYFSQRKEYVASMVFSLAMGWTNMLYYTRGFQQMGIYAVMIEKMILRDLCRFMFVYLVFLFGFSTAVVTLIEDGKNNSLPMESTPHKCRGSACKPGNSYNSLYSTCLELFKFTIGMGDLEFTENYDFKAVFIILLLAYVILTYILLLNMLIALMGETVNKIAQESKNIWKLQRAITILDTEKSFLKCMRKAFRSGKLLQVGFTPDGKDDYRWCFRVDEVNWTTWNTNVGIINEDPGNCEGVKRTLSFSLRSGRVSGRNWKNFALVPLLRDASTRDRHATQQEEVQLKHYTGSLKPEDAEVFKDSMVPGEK
T2 sequence (Q8NER1 whole entry): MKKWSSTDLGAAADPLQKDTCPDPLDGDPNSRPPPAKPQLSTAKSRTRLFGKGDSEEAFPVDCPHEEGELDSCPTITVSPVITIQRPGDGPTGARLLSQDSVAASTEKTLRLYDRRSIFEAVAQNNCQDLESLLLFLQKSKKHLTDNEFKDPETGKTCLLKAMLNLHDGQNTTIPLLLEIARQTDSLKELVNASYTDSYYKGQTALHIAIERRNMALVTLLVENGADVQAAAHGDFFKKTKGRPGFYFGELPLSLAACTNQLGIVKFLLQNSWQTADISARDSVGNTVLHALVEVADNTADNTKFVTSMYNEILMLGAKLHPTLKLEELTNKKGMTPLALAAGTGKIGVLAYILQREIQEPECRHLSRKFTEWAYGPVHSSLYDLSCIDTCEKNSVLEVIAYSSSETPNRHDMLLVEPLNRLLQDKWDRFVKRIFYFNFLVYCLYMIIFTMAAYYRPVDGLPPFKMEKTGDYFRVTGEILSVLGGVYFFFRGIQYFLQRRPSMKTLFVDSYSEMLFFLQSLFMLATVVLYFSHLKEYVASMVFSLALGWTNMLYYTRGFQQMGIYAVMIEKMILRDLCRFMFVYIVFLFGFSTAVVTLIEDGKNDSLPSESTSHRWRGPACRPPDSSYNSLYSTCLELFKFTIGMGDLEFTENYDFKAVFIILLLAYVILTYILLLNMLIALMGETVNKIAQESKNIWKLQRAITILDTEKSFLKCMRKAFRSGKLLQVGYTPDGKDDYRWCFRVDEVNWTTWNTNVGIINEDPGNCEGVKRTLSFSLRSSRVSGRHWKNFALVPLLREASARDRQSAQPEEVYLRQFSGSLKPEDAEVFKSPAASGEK
Sequence of VR1/TRPV1 receptor (Q8NER1 whole entry): as above

With `CCCN(CCC)c1nc(C(F)(F)F)ccc1CNC(=O)C(C)c1ccc(NS(C)(=O)=O)c(F)c1` (stereo not drawn) [Example 16, N-((2-(dipropylamino)-6-(trifluoromethyl)pyridin-3-yl)methyl)-2-(3-fluoro-4-(methylsulfonamido)phenyl)propanamide], at VR1/TRPV1 receptor, the half-maximal inhibitory concentration (IC50) was 14.7 nM. For the same compound, the inhibition in vivo at 0.3 mg/kg in experiment [1] turned out to be 12%. The results for the Ki (in experiment [2] (read-out: Ki (rat) Cap.); on vanilloid receptor (VR1)) were 0.8 nM and 0.2 nM, respectively.
On to `C[C@@H](C(=O)NCc1ccc(C(F)(F)F)cc1N1CCCCC1)c1ccc(NS(C)(=O)=O)c(F)c1` [Example 32, (R)-2-(3-fluoro-4-(methylsulfonamido)phenyl)-N-(2-(piperidin-1-yl)-4-(trifluoromethyl)benzyl)propanamide], for which, at VR1/TRPV1 receptor, inhibition was half-maximal at 135 nM (IC50). The inhibition in vivo at 0.3 mg/kg in experiment [1] was found to be 55%. Moreover, the results for the inhibition constant Ki (in experiment [2] (read-out: Ki (rat) Cap.); on vanilloid receptor (VR1)) were 2.6 nM and 1.7 nM, respectively.
For `CC(C(=O)NCc1ccc(C(F)(F)F)nc1-c1ccc(F)cc1)c1ccc(NS(C)(=O)=O)c(F)c1` (stereo not drawn) [Example 89], in that order: 131 nM, 1%, 1.2 nM and 0.4 nM.
For the compound `CCCCCCOc1nc(C(F)(F)F)ccc1CNC(=O)[C@@H](C)c1ccc(NS(C)(=O)=O)c(F)c1` [Example 93, (S)-2-(3-fluoro-4-methylsulfonamido-phenyl)-N-(2-hexyloxy-6-trifluoromethyl-pyridin-3-ylmethyl)-propionamide], at VR1/TRPV1 receptor, half-maximal inhibition (IC50) was put at 12.3 nM. Also, the inhibition in vivo at 0.3 mg/kg in experiment [1] turned out to be 4%. The Ki in experiment [2] (Ki (rat) Cap.) was 0.2 nM; at vanilloid receptor (VR1), 0.4 nM.
Take `CC(C(=O)NCc1ccc(C(F)(F)F)nc1OCC1CC1)c1ccc(NS(C)(=O)=O)c(F)c1` (stereo not drawn) [Example 100, N-(2-cyclopropylmethoxy-6-trifluoromethyl-pyridin-3-ylmethyl)-2-(3-fluoro-4-methylsulfonamido-phenyl)-propionamide]: on VR1/TRPV1 receptor, the half-maximal inhibitory concentration (IC50) came to 115 nM. Besides, the inhibition in vivo at 0.3 mg/kg in experiment [1] stood at 26%. Also, the inhibitory constant (Ki) in experiment [2] (Ki (rat) Cap.) is 1.2 nM; at vanilloid receptor (VR1), 1.1 nM.
For `COc1cccc(COc2nc(C(F)(F)F)ccc2CNC(=O)C(C)c2ccc(NS(C)(=O)=O)c(F)c2)c1` (stereo not drawn) [Example 107, 2-(3-fluoro-4-methylsulfonamido-phenyl)-N-[2-(3-methoxy-benzyloxy)-6-trifluoromethyl-pyridin-3-ylmethyl]-propionamide], in that order: 43.7 nM, 21%, 1 nM and 0.8 nM.
Regarding `CC(C(=O)NCc1ccc(C(F)(F)F)nc1Nc1ccccc1)c1ccc(NS(C)(=O)=O)c(F)c1` (stereo not drawn) [Example 110, 2-(3-fluoro-4-methylsulfonamido-phenyl)-N-(2-phenylamino-6-trifluoromethyl-pyridin-3-ylmethyl)-propionamide], the IC50 against VR1/TRPV1 receptor came out at 1400 nM. Besides, the inhibition in vivo at 0.3 mg/kg in experiment [1] came to 13%. In addition, the inhibitory constant (Ki) was 63.1 nM in experiment [2] (read-out: Ki (rat) Cap.) and 59.6 nM on vanilloid receptor (VR1).
For the compound `C[C@@H](C(=O)NCc1ccc(C(F)(F)F)nc1-c1ccc(F)c(Cl)c1)c1ccc(NS(C)(=O)=O)c(F)c1` [Example 121, (R)-N-[2-(3-chloro-4-fluoro-phenyl)-6-trifluoromethyl-pyridin-3-ylmethyl]-2-(3-fluoro-4-methylsulfonamido-phenyl)-propionamide], the inhibition at 10 µM on VR1/TRPV1 receptor (@ 10 μM, read-out: inhibition in percent, IC50 (human) after pH stimulus) is 56%. The inhibition in vivo at 0.3 mg/kg in experiment [1] was found to be 12%. Besides, the Ki in experiment [2] (read-out: Ki (rat) Cap.) turned out to be 5.8 nM; on vanilloid receptor (VR1), 13.2 nM.
`CCCCSc1nc(C(F)(F)F)ccc1CNC(=O)C(C)c1ccc(NS(C)(=O)=O)c(F)c1` (stereo not drawn) [Example 122] had an IC50 against VR1/TRPV1 receptor of 40.4 nM. Further, the inhibition in vivo at 0.3 mg/kg in experiment [1] came to 33%. For the same compound, the results for the inhibition constant Ki (in experiment [2] (read-out: Ki (rat) Cap.); on vanilloid receptor (VR1)) were 0.6 nM and 0.7 nM, respectively.
Compound `CC(C)CCOc1nc(C(F)(F)F)ccc1CNC(=O)C(C)c1ccc(NS(C)(=O)=O)c(F)c1` (stereo not drawn) [Example 123, 2-(3-fluoro-4-methylsulfonamido-phenyl)-N-[2-(3-methyl-butoxy)-6-trifluoromethyl-pyridin-3-ylmethyl]-propionamide] returned an IC50 on VR1/TRPV1 receptor of 15.1 nM. The inhibition in vivo at 0.3 mg/kg in experiment [1] is 47%. In addition, the figures for the Ki (in experiment [2] (read-out: Ki (rat) Cap.); at vanilloid receptor (VR1)) were 0.6 nM and 0.8 nM, respectively.
In turn, `CC(C(=O)NCc1ccc(C(F)(F)F)nc1OCC1CC1C)c1ccc(NS(C)(=O)=O)c(F)c1` (stereo not drawn) [Example 124, 2-(3-fluoro-4-methylsulfonamido-phenyl)-N-[2-(2-methyl-cyclopropylmethoxy)-6-trifluoromethyl-pyridin-3-ylmethyl]-propionamide] displayed an IC50 against VR1/TRPV1 receptor of 5.1 nM. In addition, the inhibition in vivo at 0.3 mg/kg in experiment [1] was determined as 39%. In addition, the inhibitory constant (Ki) in experiment [2] (read-out: Ki (rat) Cap.) worked out at 0.4 nM; on vanilloid receptor (VR1) it was 0.3 nM.
On VR1/TRPV1 receptor, `CC1CCN(c2nc(C(F)(F)Cl)ccc2CNC(=O)C(C)c2ccc(NS(C)(=O)=O)c(F)c2)CC1` (stereo not drawn) [Example 131] had a concentration for half-maximal inhibition (IC50) of 5.9 nM. Moreover, the inhibition in vivo at 0.3 mg/kg in experiment [1] came out at 26%. The values for the Ki (in experiment [2] (read-out: Ki (rat) Cap.); at vanilloid receptor (VR1)) were 0.4 nM and 0.3 nM, respectively.
On to `CC(C(=O)NCc1ccc(C(F)(F)Cl)nc1N1CCCCCC1)c1ccc(NS(C)(=O)=O)c(F)c1` (stereo not drawn) [Example 132, N-[2-azepan-1-yl-6-(chloro-difluoro-methyl)-pyridin-3-ylmethyl]-2-(3-fluoro-4-methylsulfonamido-phenyl)-propionamide], for which the IC50 at VR1/TRPV1 receptor came to 14.7 nM. Moreover, in experiment [1], the inhibition in vivo at 0.3 mg/kg amounted to 0%. Besides, the Ki in experiment [2] (read-out: Ki (rat) Cap.) is 0.7 nM.
`CC(C(=O)NCc1ccc(C(F)(F)F)nc1N1CCC(F)CC1)c1ccc(NS(C)(=O)=O)c(F)c1` (stereo not drawn) [Example 138, 2-(3-fluoro-4-methylsulfonamido-phenyl)-N-(4-fluoro-6′-trifluoromethyl-3,4,5,6-tetrahydro-2H-[1,2′]bipyridinyl-3′-ylmethyl)-propionamide] had an IC50 against VR1/TRPV1 receptor of 19.8 nM. Further, in experiment [1], the inhibition in vivo at 0.3 mg/kg was 0%. Besides, the Ki in experiment [2] (read-out: Ki (rat) Cap.) was 1.2 nM; at vanilloid receptor (VR1), 0.5 nM.
For `CC(C(=O)NCc1ccc(C(F)(F)F)nc1N1CC=CCC1)c1ccc(NS(C)(=O)=O)c(F)c1` (stereo not drawn) [Example 139, 2-(3-fluoro-4-methylsulfonamido-phenyl)-N-(6′-trifluoromethyl-3,6-dihydro-2H-[1,2′]bipyridinyl-3′-ylmethyl)-propionamide], in that order: 12.1 nM, 43%, 0.9 nM and 0.3 nM.
Taken in the same sequence, the figures for `CC(C(=O)NCc1ccc(C(F)(F)F)nc1-c1ccc(Cl)cc1)c1ccc(NS(C)(=O)=O)c(F)c1` (stereo not drawn) [Example 147, N-[2-(4-chloro-phenyl)-6-trifluoromethyl-pyridin-3-ylmethyl]-2-(3-fluoro-4-methylsulfonamido-phenyl)-propionamide] were 10.4 nM, 3%, 1 nM and 0.7 nM.
In turn, `CC(C(=O)NCc1ccc(C(C)(C)C)cc1OC1CCCCC1)c1ccc(NS(C)(=O)=O)c(F)c1` (stereo not drawn) [Example 154, N-(4-tert-butyl-2-cyclohexyloxy-benzyl)-2-(3-fluoro-4-methylsulfonamido-phenyl)-propionamide] gave an IC50 on VR1/TRPV1 receptor of 534 nM. For the same compound, the inhibition in vivo at 0.3 mg/kg in experiment [1] was 12%. Moreover, the inhibition constant Ki in experiment [2] (read-out: Ki (rat) Cap.) amounted to 1.7 nM; on vanilloid receptor (VR1) it was 8.1 nM.
Taken in the same sequence, the figures for `CC(C(=O)NCc1ccc(C(F)(F)F)nc1N1Cc2ccccc2C1)c1ccc(NS(C)(=O)=O)c(F)c1` (stereo not drawn) [Example 188, N-[2-(1,3-dihydro-isoindol-2-yl)-6-trifluoromethyl-pyridin-3-ylmethyl]-2-(3-fluoro-4-methylsulfonamido-phenyl)-propionamide] were 192 nM, 0%, 5 nM and 5 nM.
Take `CC(C(=O)NCc1ccc(C(F)(F)F)nc1N1CCN(c2ncccc2Cl)CC1C)c1ccc(NS(C)(=O)=O)c(F)c1` (stereo not drawn) [Example 194, N-{2-[4-(3-chloro-pyridin-2-yl)-2-methyl-piperazin-1-yl]-6-trifluoromethyl-pyridin-3-ylmethyl}-2-(3-fluoro-4-methylsulfonamido-phenyl)-propionamide]: the inhibition at 1 µM on VR1/TRPV1 receptor (@ 1 μM, ne = no effect, read-out: inhibition in percent, IC50 (human) after pH stimulus) was 21%. For the same compound, in experiment [1], the inhibition in vivo at 0.3 mg/kg was found to be 14%. The Ki in experiment [2] (read-out: Ki (rat) Cap.) worked out at 3.8 nM; at vanilloid receptor (VR1) it was 4.1 nM.

The values are drawn from patent publication US8710233B2 (Gruenenthal GmbH, priority 2005, dated 2014).
